Laboratory results published in US11723894B2, “Combination product for the treatment of neurological and/or psychiatric disorders” (Consejo Superior de Investigaciones Cientificas (CSIC), priority 2017, dated 2023).

Key:
[1] = 6-OHDA in vitro model of Parkinson's Disease, cell viability (MTT); format: cell-based, human; details: human, SH-SY5Y dopaminergic cells, 6-OHDA alone 30 μM 24 h
From the text: (§1) Example 9: DMT, DET, DPT and 5-MeO-DMT prevent dopaminergic cell death and inflammation (Only Measured for DMT) caused by the potent and selective dopaminergic toxin 6-OHDA in an in vitro model of Parkinson's Disease. These desired effects are preserved in the presence of the 5-HT2A antagonist Ritanserin (Rit). The Human SH-SY5Y dopaminergic cell line was obtained from Sigma-Aldrich, cultured in 96-well plates and propagated in RPMI medium containing glutamine (1%) and 15% of fetal bovine serum (FBS) plus antibiotic (gentamicin), under humidified 5% CO2 and 95% air. On attaining semiconfluence, separate groups of cells were treated with either: a) one of the four hallucinogenic tryptamines at 1 μM for 1 h, followed by 6-OHDA at 30 μM for 24 hours; or b) Rit at 1 μM for 1h, followed one of the four hallucinogenic tryptamines at 1 μM for an additional hour, at which point 6-OHDA was administered, also at 30 μM, and kept for 24 hours. Vehicle-treated cultures were used as controls. Cell cultures were then processed to assess cell viability (for all four tryptamines) and quantification of nitrite concentration (only performed in the DMT and DMT+Rit tests). Cell viability was measured using the MTT assay (Roche Diagnostic, GmbH), which is based on the ability of viable cells to reduce yellow MTT to blue formazan. After the aforementioned 24 h period in the presence of the different tryptamines or the respective tryptamine+Rit combinations, cells were incubated with MTT (0.5 mg/ml, 4 h) and subsequently solubilized in 10% SDS/0.01 M HCl for 12 h in the dark. The extent of MTT reduction was quantified by absorbance measurement at the 595 nm wavelength, as indicated in the instructions provided by the manufacturer. Nitrite quantification: Due to access to equipment problems at the time the experiments with DET, DPT and 5-MeO-DMT were conducted, the assessment of nitrite levels in the medium could only be done for the DMT experiments. These determinations were carried out as described in Example 8. Results from the cell viability tests are expressed as the percentage of viable dopaminergic cells measured. Results from nitrite determinations are expressed as actual concentrations (μM). Results from both techniques are presented in bar graphs.

[2] = tested on: dopaminergic neurons of the Substantia nigra pars compacta; test: 6-OHDA in vivo model of Parkinson's Disease (injection into Substantia nigra pars compacta); design: species or system C57BL/6 mice; details: 5 μg 6-OHDA alone into SNpc, 3 weeks
Procedure: Example 10: DMT administration prevents dopaminergic cell death in a in vivo model of Parkinson's disease. Adult male C57BL/6 mice (8-12 weeks old) were used in this study. Animals were properly anaesthetized and placed in a stereotaxic apparatus (Kopf Instruments, CA). 6-OHDA (5 μg in […] PBS) was injected into the right side of the Substantia nigra pars compacta (SNpc) (coordinates from Bregma: posterior −3.2 mm; lateral +2.0 mm; ventral: +4.7 mm, according to the atlas of Paxinos and Franklin, The Mouse Brain in Stereotaxic Coordinates. 4. San Diego: Academic Press; 2012). Control animals of the same age were injected with PBS. A third group received an injection with 6-OHDA (5 μg) combined with DMT (0.1 μg) in […] PBS. Mice were then housed individually to recover and sacrificed 3 weeks later. At this point animals were anaesthetized and perfused transcardially with a 4% paraformaldehyde solution. The brains were removed, postfixed in the same solution at 4° C. overnight, cryoprotected in 20% sucrose, frozen, and 30 μm coronal sections were obtained in a cryostat. Free-floating sections were processed for double fluorescent immunohistochemistry. […] Neuronal integrity and specifically dopaminergic cell death was assessed by counting the percentage of TH^+ cells in the SNpc following a stereological approach. […] Images were analyzed using computer-assisted image analysis software (Soft Imaging System Corporation, Lakewood, Colo.). Results were expressed as the percentage of dopaminergic cell loss in the SNpc.

[3] = tested on: microglial cells; test: LPS-induced nitrite production (Griess) in primary microglial cultures; format: cell-based, rat; details: microglia; for reduction of LPS-induced nitrite in the presence of Rit: Rit 1 μM 1 h before tryptamine 1 μM, then LPS 10 μg/mL 24 h; for LPS-induced nitrite increases: tryptamine 1 μM before LPS 10 μg/mL, 24 h, vs LPS alone
Procedure: (§2) Example 8: DMT, DET, DPT and 5-MeO-DMT administration in vitro prevents inflammation in rat primary glial cells. […] Rat primary glial cell cultures were prepared from the cerebral cortex of 3 day old rats which were dissected, dissociated, and incubated with 0.25% trypsin/EDTA at 37° C. for 1 h. After centrifugation, the pellet was washed three times with HBSS (Gibco) and the cells were plated in poly-D-lysine (20 μg/mL) pretreated flasks (75 cm2). After 7-10 days, the flasks were agitated in an orbital shaker for 4 h at 230 rpm at 37° C. and non-adherent microglial cells were isolated and plated. Then Dulbecco's Modified Eagle's Medium (DMEM) was added to the flasks, which were agitated in a horizontal shaker at 260 rpm at 37° C. After overnight agitation, the supernatant (oligodendrocytes and some remaining microglial cells) was removed, and astrocytes (adherent cells) were collected. The purity of the cultures was >95%, as determined by immunofluorescence analysis using an anti-glial fibrillary acidic protein (GFAP; clone G-A-5; Sigma-Aldrich) antibody to identify astrocytes, and an anti-Iba1 (Wako Catalog No. 019-19741) antibody to identify microglial cells. On attaining semiconfluence, cells were administered each of the test tryptamines at 1 μM or with the combination test tryptamine+Ritanserin (Rit at 1 μM) 2 h before exposure to lipopolysaccharide (LPS, 10 μg/mL; Sigma-Aldrich) and kept in the presence of each drug or drug combination for 24 h. In combination studies, Rit was added to medium 1h before administration of the corresponding tryptamine. Vehicle-treated cultures were used as a control. After the 24 h drug exposure period, cultures were tested to assess nitrite release. To quantify nitrite concentrations in culture medium, supernatants of glial cultures were collected and mixed with an equal volume of Griess reagent (Sigma-Aldrich). Samples were then incubated at room temperature for 15 min and absorbance was measured at 540 nm on a microplate reader. Results are expressed as the mean±SEM of six replications in three different experiments

[4] = tested on: astrocytes; test: LPS-induced nitrite production (Griess) in primary astrocyte cultures; format: cell-based, rat; details: for reduction of LPS-induced nitrite in the presence of Rit: Rit 1 μM 1 h before tryptamine 1 μM, then LPS 10 μg/mL 24 h; for LPS-induced nitrite increases: tryptamine 1 μM before LPS 10 μg/mL, 24 h, vs LPS alone
Procedure: as §2

[5] = tested on: Human SH-SY5Y dopaminergic cells; test: 6-OHDA in vitro model of Parkinson's Disease, cell viability (MTT); format: cell-based; details: tryptamine 1 μM 1 h, then 6-OHDA 30 μM 24 h; for reduction in dopaminergic cell death in the presence of Ritanserin: Rit 1 μM 1 h; for percentage of viable dopaminergic neurons: vs 6-OHDA alone
From the text: as §1

Structure (SMILES)	viability at 24 h, 30 μM ([1]; DET, DPT and 5-MeO-DMT experiments, read-out: cell viability, of the reference control value) [%]	cytotoxicity at 24 h, 30 μM ([1]; DMT experiments (graph A.1), read-out: reduction in the number of viable dopaminergic cells compared to vehicle treated cultures) [%]	average percentage of dopaminergic cell loss in the SNpc [2] [%]	reduction of LPS-induced nitrite in the presence of Rit [3]	LPS-induced nitrite increases [3]	reduction of LPS-induced nitrite in the presence of Rit [4]	LPS-induced nitrite increases [4]	reduction in dopaminergic cell death in the presence of Ritanserin [5]	percentage of viable dopaminergic neurons [5]
NCCc1cc(O)c(O)cc1O [6-OHDA, 6-hydroxy-dopamine, reference compound]	~60	50	60						
CCCN(CCC)CCc1c[nH]c2ccccc12 [DPT, N,N-dipropyltryptamine]				maintained	significantly reduced	maintained	significantly reduced	maintained	significant increases
CCN(CC)CCc1c[nH]c2ccccc12 [DET, N,N-diethyltryptamine]				maintained	significantly reduced	maintained	significantly reduced	maintained	significant increases
COc1ccc2[nH]cc(CCN(C)C)c2c1 [5-MeO-DMT, 5-methoxy-N,N-dimethyltryptamine]				maintained	significantly reduced	maintained	significantly reduced	maintained	significant increases
